# Like-named read-outs stand apart in the source and are kept apart here.
# What was measured:
# [1] = target: T1, D2 receptors (Bos taurus, UniProt P20288); assay: D2 activity - competition for 3H-spiroperidol binding in bovine anterior pituitary membranes; details: for Kb: competition with 3H-spiroperidol (approximately .25 nM), bovine anterior pituitary membranes, figure in parentheses = number of tests, read-out: D2 (KBind, KB); for D2 to D1 ratios: selectivity ratio from the D1 and D2 binding data of Tables I and II, n to 1 = D2 selective, 1 to n = D1 selective
# T1 construct: homogenized and washed membrane preparations from bovine anterior pituitary; from tissue; host or cells: bovine anterior pituitary membranes
# Description: A) D2 Activity - Competition for ^3H-Spiroperidol in Bovine Anterior Pituitary Tissue. Test Procedure
# The assay was performed using homogenized and washed membrane preparations from bovine anterior pituitary. Incubation proceeded for 20 minutes at 37° in 50 mM Tris-HCI, pH 7.4, containing 10 mM magnesium sulfate, 2 mM ethylenediamine tetra-acetic acid and 0.1 % ascorbate. The membrane- bound radioactivity was trapped by rapid filtration over glass fiber (GF/C) filters. In each experiment, the amount of ^3H-spiroperidol bound was determined in the absence (total) and presence (non-specific) of 10^-6M (+)-butaclamol, the difference yielding specific ^3H-spiroperidol binding. The ability of each compound to compete with ^3H-spiroperidol (approximately .25 nM) was tested at concentrations of 10-^7 and 10-^5.
# [2] = target: T2, D1 receptors (Rattus norvegicus, UniProt P18901); assay: D1 activity - competition for 3H-fenoldopam binding in rat striatum (caudate) membranes
# T2 construct: homogenized and washed membrane preparations from rat caudate nuclei; from tissue; host or cells: rat caudate nuclei (striatum) membranes
# Description: B) D1 Activity - Competition for ^3H-Fenoldopam in Rat Striatum Tissue. Test Procedure
# The assay was performed using homogenized and washed membrane preparations from rat caudate nuclei. Tissues were preincubated for 15 min at 37° in 50 mM Tris-HCI, pH 7.4, 10 mM magnesium sulfate, 2 mM ethylenediamine tetra-acetic acid and 0.1 % ascorbate. The binding assay was then carried out in the above buffer also containing 10 µm pargyline, ^3H-fenoldopam and test compounds. The membrane- bound radioactivity was trapped by rapid filtration over glass fiber (GF/C) filters. In each experiment the amount of ^3H-fenoldopam bound was determined in the absence (total) and presence (non-specific) of 10^-6M (+)-butaclamol, the difference yielding specific ^3H-fenoldopam binding. The ability of each compound to compete with ^3H-fenoldopam (approximately 2.0 nM) was tested at concentrations of 10-^7 and 10^-6M.
# [3] = tested on: spontaneous hypertensive rat; assay: Natriuretic activity in the spontaneous hypertensive rat protocol; type: in vivo; details: at a hypotensive dose (Compound G: 3.12 mg/kg i.p.)
# [4] = tested on: a2; assay: Clonidine binding protocol (a2 activity)
# [5] = tested on: rabbit ear artery; assay: Standard rabbit ear artery protocol for pre-junctional dopaminergic activity; details: ED50 for Compound D
# [6] = competition with 3H-fenoldopam (approximately 2.0 nM), rat caudate membranes, figure in parentheses = number of tests, read-out: D1 (KBind, KB)
# T1 sequence (P20288 whole entry): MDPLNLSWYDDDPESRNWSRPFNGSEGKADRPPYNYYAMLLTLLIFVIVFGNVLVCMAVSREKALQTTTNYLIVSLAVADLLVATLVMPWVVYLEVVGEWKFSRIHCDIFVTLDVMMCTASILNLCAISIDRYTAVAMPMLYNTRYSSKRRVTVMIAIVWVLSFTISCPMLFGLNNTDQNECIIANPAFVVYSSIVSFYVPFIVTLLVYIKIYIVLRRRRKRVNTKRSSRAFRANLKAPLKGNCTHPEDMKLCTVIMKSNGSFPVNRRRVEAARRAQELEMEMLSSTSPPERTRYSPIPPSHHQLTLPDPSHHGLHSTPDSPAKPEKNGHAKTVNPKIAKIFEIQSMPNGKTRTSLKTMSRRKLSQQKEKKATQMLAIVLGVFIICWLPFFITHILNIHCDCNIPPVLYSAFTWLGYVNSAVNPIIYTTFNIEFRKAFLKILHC
# T2 sequence (P18901 whole entry): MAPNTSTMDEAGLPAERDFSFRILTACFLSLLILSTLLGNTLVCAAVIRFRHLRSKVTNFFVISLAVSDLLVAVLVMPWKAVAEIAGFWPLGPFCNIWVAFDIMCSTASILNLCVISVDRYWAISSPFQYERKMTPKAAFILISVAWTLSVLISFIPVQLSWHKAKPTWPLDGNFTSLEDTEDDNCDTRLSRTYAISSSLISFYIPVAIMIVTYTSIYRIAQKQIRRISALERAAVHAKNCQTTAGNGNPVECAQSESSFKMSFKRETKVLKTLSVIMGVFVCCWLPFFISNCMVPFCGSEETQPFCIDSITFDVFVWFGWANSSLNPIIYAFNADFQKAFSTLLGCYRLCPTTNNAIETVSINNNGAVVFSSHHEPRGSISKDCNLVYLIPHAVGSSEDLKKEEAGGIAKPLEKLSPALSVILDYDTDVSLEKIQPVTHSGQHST
structure (smiles),measurement,setting,value
"CCCN(CCc1ccc(O)cc1)C1CCc2cc(O)c(O)c(Cl)c2C1 (stereo not shown) [A, 8-Chloro-6,7-dihydroxy-2-[N-(n-propyl)-N-(4-hydroxyphenethyl)-amino] tetralin]",Kb,[1],33 nM
same,Kb,[2]; [6],270 nM
"NC1CCc2cc(F)c(O)cc2C1 (stereo not shown) [L, reference compound]",Kb,[1],660 nM
same,Kb,[2]; [6],370 nM
"NC1CCc2c(ccc(O)c2Cl)C1 (stereo not shown) [O, reference compound]",Kb,[1],11600 nM
same,Kb,[2]; [6],> 10000 nM
"NC1CCc2cc(O)c(O)cc2C1 (stereo not shown) [ADTN, 6,7-Dihydroxy-2-aminotetralin, reference compound]",natriuretic activity,[3],inactive
same,D2 to D1 ratios,[1],1 to 3
same,a2 activity,[4],demonstrated a2 activity
"Oc1ccc(CCNC2CCc3cc(O)c(O)c(Cl)c3C2)cc1 (stereo not shown) [B, 8-Chloro-6,7-dihydroxy-2-(4-hydroxyphenethylamino)tetralin]",Kb,[1],405 nM
same,Kb,[2]; [6],1450 nM
"NC1CCc2cc(O)c(Cl)cc2C1 (stereo not shown) [N, reference compound]",Kb,[1],4470 nM
same,Kb,[2]; [6],1970 nM
"NC1CCc2cc(O)c(O)c(F)c2C1 (stereo not shown) [Compound E, 8-Fluoro-6,7-dihydroxy-2-aminotetralin]",Kb,[1],1270 nM
same,D2 to D1 ratios,[1],1 to 27
same,EC50,[5],5 nM
same,Kb,[2]; [6],62 nM
same,a2 activity,[4],demonstrated a2 activity
"CCCN(CCC)C1CCc2cc(O)c(O)c(Cl)c2C1 (stereo not shown) [C, 8-Chloro-6,7-dihydroxy-2-di-n-propyl aminotetralin]",Kb,[1],240 nM
same,Kb,[2]; [6],620 nM
"NC1CCc2cc(O)c(O)c(Cl)c2C1 (stereo not shown) [Compound G, 8-Chloro-6,7-dihydroxy-2-aminotetralin]",natriuretic activity,[3],potent natriuretic activity
same,Kb,[1],3160 nM
same,D2 to D1 ratios,[1],1 to 80
same,EC50,[5],513 nM
same,Kb,[2],43 nM
same,a2 activity,[4],demonstrated a2 activity
"NC1CCc2c(cc(O)c(O)c2F)C1 (stereo not shown) [Compound D, 5-Fluoro-6,7-dihydroxy-2-aminotetralin]",Kb,[1],520 nM
same,D2 to D1 ratios,[1],1 to 7
same,EC50,[5],2.14 nM
same,Kb,[2]; [6],72 nM
same,a2 activity,[4],demonstrated a2 activity
"NC1CCc2c(cc(O)c(O)c2Cl)C1 (stereo not shown) [Compound F, 5-Chloro-6,7-dihydroxy-2-aminotetralin]",Kb,[1],470 nM
same,EC50,[5],50 nM
same,Kb,[2]; [6],640 nM
same,a2 activity,[4],demonstrated a2 activity
"CCCN(CCC)C1CCc2cc(Cl)c(O)cc2C1 (stereo not shown) [M, reference compound]",Kb,[1],1630 nM
same,Kb,[2]; [6],4710 nM
